Test results as given in PubChem BioAssay AID250 (DTP/NCI, 2004).
Several values for one entry are separate records, joined by “and”; a condition that tells them apart may be missing. Identical values can stand only once. Inconclusive results and toxic doses are left out. How the source made its calls: active means survival T/C of 150% or more; inactive means T/C below 125% in these data.

Tested on: BDF1 mice, L1210 leukemia sc, survival T/C
Assay: NCI In Vivo Anticancer Drug Screen. Data for tumor model L1210 Leukemia (subcutaneous) in B6D2F1 (BDF1) mice
Settings: endpoint: median survival time, higher = longer survival
How it was run: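 Expressed as T/C: measurement in compound-treated, tumor-bearing mice relative to vehicle-treated control mice, based on survival or tumor size.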

Measured: T/C

CN(Cc1cnc2nc(N)nc(N)c2n1)c1c(Cl)cc(C(=O)NC(CCC(=O)O)C(=O)O)cc1Br (stereo not given)
active: dose: 1.8 mg/kg/injection, schedule: Q## X Z (sc), vehicle: other 266 % of control | dose: 3.0 mg/kg/injection, schedule: Q## X Z (sc), vehicle: other 288 % of control | dose: 5.0 mg/kg/injection, schedule: Q## X Z (sc), vehicle: other 422 % of control | dose: 14.0 mg/kg/injection, schedule: Q01DX Z (sc), vehicle: other 244 % of control | dose: 23.0 mg/kg/injection, schedule: Q01DX Z (sc), vehicle: other 283 % of control and 300 % of control | dose: 23.4 mg/kg/injection, schedule: Q01DX Z (ip), vehicle: other 283 % of control | dose: 38.9 mg/kg/injection, schedule: Q01DX Z (ip), vehicle: other 305 % of control | dose: 39.0 mg/kg/injection, schedule: Q01DX Z (sc), vehicle: other 322 % of control and 338 % of control | dose: 64.8 mg/kg/injection, schedule: Q01DX Z (ip), vehicle: other 300 % of control | dose: 65.0 mg/kg/injection, schedule: Q01DX Z (sc), vehicle: other 316 % of control and 333 % of control | dose: 107.0 mg/kg/injection, schedule: Q01DX Z (ip), vehicle: other 244 % of control | dose: 108.0 mg/kg/injection, schedule: Q01DX Z (sc), vehicle: other 211 % of control and 233 % of control | dose: 179.0 mg/kg/injection, schedule: Q01DX Z (ip), vehicle: other 177 % of control | dose: 180.0 mg/kg/injection, schedule: Q01DX Z (sc), vehicle: other 166 % of control
inactive: dose: 4.9 mg/kg/injection, schedule: Q01DX Z (ip), vehicle: other 111 % of control | dose: 5.0 mg/kg/injection, schedule: Q01DX Z (sc), vehicle: other 100 % of control | dose: 8.3 mg/kg/injection, schedule: Q01DX Z (ip), vehicle: other 122 % of control | dose: 8.4 mg/kg/injection, schedule: Q01DX Z (sc), vehicle: other 111 % of control | dose: 8.4 mg/kg/injection, schedule: Q## X Z (sc), vehicle: other 100 % of control | dose: 14.1 mg/kg/injection, schedule: Q01DX Z (ip), vehicle: other 122 % of control | dose: 39.0 mg/kg/injection, schedule: Q## X Z (sc), vehicle: other 104 % of control | dose: 65.0 mg/kg/injection, schedule: Q## X Z (sc), vehicle: other 104 % of control | dose: 108.0 mg/kg/injection, schedule: Q## X Z (sc), vehicle: other 104 % of control | dose: 180.0 mg/kg/injection, schedule: Q## X Z (sc), vehicle: other 109 % of control | dose: 300.0 mg/kg/injection, schedule: Q## X Z (sc), vehicle: other 114 % of control | dose: 500.0 mg/kg/injection, schedule: Q## X Z (sc), vehicle: other 114 % of control

Cc1cc2nc3c(=O)[nH]c(=O)nc-3n(CC(O)C(O)C(O)C(O)CO)c2cc1C (stereo not given)
inactive: dose: 180.0 mg/kg/injection, schedule: Q01DX Z (sc), vehicle: methylcellulose (MC) 100 % of control | dose: 300.0 mg/kg/injection, schedule: Q01DX Z (sc), vehicle: methylcellulose (MC) 100 % of control | dose: 500.0 mg/kg/injection, schedule: Q01DX Z (sc), vehicle: methylcellulose (MC) 100 % of control

O=c1[nH]c(=O)n(C2CC(O)C(CO)O2)cc1I (stereo not given)
inactive: dose: 14.0 mg/kg/injection, schedule: Q01DX Z (sc), vehicle: saline 100 % of control | dose: 23.0 mg/kg/injection, schedule: Q01DX Z (sc), vehicle: saline 100 % of control | dose: 39.0 mg/kg/injection, schedule: Q01DX Z (sc), vehicle: saline 106 % of control | dose: 65.0 mg/kg/injection, schedule: Q01DX Z (sc), vehicle: saline 103 % of control | dose: 108.0 mg/kg/injection, schedule: Q01DX Z (sc), vehicle: saline 103 % of control | dose: 180.0 mg/kg/injection, schedule: Q01DX Z (sc), vehicle: saline 100 % of control
